This note sets out measurements from patent US10564162B2, “Predictive biomarkers” (BIONOMICS LIMITED, priority 2014, dated 2020).

The subject of data set [1] is Serum Amyloid P-Component (SAP). Briefly: Disruptor-1 trial: plasma SAP level post versus pre BNC105P infusion (Human CustomMAP, Luminex). It is filed as in vivo. The text has this:
(§1) The objective of the study was to determine the response rate of patients administered BNC105P (vascular disrupting agent) in combination with everolimus (mTOR inhibitor) in patients who had progressed from prior tyrosine kinase inhibitor therapy. In addition, the present inventors determined the improvement in 6-months progression free survival (PFS) with the addition of BNC105P to everolimus (Afinitor). A control group of patients received everolimus alone.
(§2) Patients in the BNC105P in combination with everolimus study group (the “combination arm”) were administered 10 mg oral everolimus daily. On days 1 and 8 of the 21 day cycle period, the patients were administered 16 mg/m^2 BNC105P, which had been determined to be the maximum tolerated dose, by intravenous infusion over a 10 minute period (FIG. 1). Treatment was continued until disease progressed, intolerable toxicity became apparent, or until consent was withdrawn. A control group of patients were administered with everolimus alone.
(§3) Human EDTA plasma samples were taken from patients to quantitatively measure the concentration of 56 analytes from the Human CustomMAP at Myriad RBM (MRBM). […]
(§4) The biomarker levels at each time and the change in biomarker levels were examined. The mean change from pre- to post-infusion was calculated as the mean of C1D1 pre-infusion minus C1D1 post-infusion. […]

For data set [2], the system named is Sex Hormone-Binding Globulin (SHBG). Briefly: Disruptor-1 trial: plasma SHBG level post versus pre BNC105P infusion (Human CustomMAP, Luminex). The class given is in vivo.
Text: as §1, §2, §3, §4

In data set [3] the test system is Myoglobin (MB). Briefly: Disruptor-1 trial: plasma Myoglobin level post versus pre BNC105P infusion (Human CustomMAP, Luminex). The class given is in vivo.
Text: as §1, §2, §3, §4

For data set [4], the system named is Matrix Metalloproteinase-9 (MMP-9). Briefly: Disruptor-1 trial: plasma MMP-9 level post versus pre BNC105P infusion (Human CustomMAP, Luminex). The class given is in vivo.
Text: as §1, §2, §3, §4

For data set [5], the system named is Stem Cell Factor (SCF). Briefly: Disruptor-1 trial: plasma SCF level post versus pre BNC105P infusion (Human CustomMAP, Luminex). It is filed as in vivo.
Text: as §1, §2, §3, §4

The nature of data set [6]: Maximum tolerated dose of BNC105P in patients. It is filed as in vivo, Human. Particulars: intravenous infusion over 10 minutes, days 1 and 8 of 21 day cycle, with 10 mg oral everolimus daily. Here is the method: as §2
The subject of data set [7] is tumour endothelial cells (activated) and normal endothelial cells (quiescent). Briefly: Potency against activated versus quiescent endothelial cells. The class given is cell-based.
Data set [8] concerns tubulin. Briefly: Tubulin polymerisation inhibition. It is filed as biochemical.
Where [9] appears, read: plasma, renal cell carcinoma patients, 16 mg/m^2 BNC105P i.v. infusion plus 10 mg oral everolimus daily, post versus pre infusion.
[10] abbreviates: post/baseline plasma ratio after BNC105P, patients split at the median.

The structures appear in SMILES notation.

Take `COc1cc(C(=O)c2c(C)oc3c(OP(=O)([O-])[O-])c(OC)ccc23)cc(OC)c1OC.[Na+].[Na+]` [BNC105P, disodium [6-methoxy-2-methyl-3-(3,4,5-trimethoxybenzoyl)-1-benzofuran-7-yl]phosphate]: the “Median Post/Baseline Ratio, SAP” value in data set [1] (setting [9]) was found to be 0.95. Moreover, the “Biomarker change Ratio Range associated with better PFS, SAP” value in data set [1] (setting [10]) is ≤0.95. For the same compound, the “Median Post/Baseline Ratio, SHBG” value in data set [2] (setting [9]) came to 0.92. Further, the “Biomarker change Ratio Range associated with better PFS, SHBG” value in data set [2] (setting [10]) is ≤0.92. Moreover, the “Median Post/Baseline Ratio, Myoglobin” value in data set [3] (setting [9]) turned out to be 0.935. Also, in data set [3] (setting [10]), the “Biomarker change Ratio Range associated with better PFS, Myoglobin” value was ≤0.935. Also, the “Median Post/Baseline Ratio, MMP-9” value in data set [4] (setting [9]) worked out at 1.060. The “Biomarker change Ratio Range associated with better PFS, MMP-9” value in data set [4] (setting [10]) was >1.060. In data set [5] (setting [9]), the “Median Post/Baseline Ratio, SCF” value is 1.0. Further, the “Biomarker change Ratio Range associated with better PFS, SCF” value in data set [5] (setting [10]) is >1. Moreover, the maximum tolerated dose in data set [6] turned out to be 16 mg/m^2.
Turning to `COc1ccc(/C=C\c2cc(OC)c(OC)c(OC)c2)cc1O` [Combretastatin A4, reference compound], the “selectivity between activated (tumour) and quiescent (normal) endothelial cells (in words)” value in data set [7] is “equally potent against quiescent and activated endothelial cells”.
Consider `COc1cc(C(=O)c2c(C)oc3c(O)c(OC)ccc23)cc(OC)c1OC` [III, 2-methyl-7-hydroxy-3-(3,4,5-trimethoxybenzoyl)-6-methoxybenzofuran], for which the “tubulin polymerisation inhibition (in words)” value in data set [8] is “potent tubulin polymerisation inhibitors”. Further, the “selectivity between activated (tumour) and quiescent (normal) endothelial cells (in words)” value in data set [7] is reported as “show selectivity towards tumor endothelial cells (activated) over normal endothelial cells (quiescent)”.
